Legend:
Test in all cases: relative viability (nuclei count vs DMSO), 5 days (fraction); higher = more cells survive
[1] = compound: C1CC2=C(C1)C=C(C=C2)OC3=NC(=C4C(=N3)N(C=N4)CC5=CC=C(C=C5)C6=CC=CC=C6)N[C@@H](CC7=CC=CC=C7)CO [QS11] + O=C(CCCCCCC(=O)Nc1ccccc1)NO [Vorinostat] (partner 1 µM)
Procedure, shortened: (§1)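 Relative viability is defined as nuclei in treated wells over nuclei in vehicle wells. Duplicate plates were run and medians reported. Lung cancer cell lines in 1536-well plates were dosed by pin tool one day after seeding, with one drug or with a fixed anchor-drug dose plus five library-drug doses (not always all listed) in √10 steps, and nuclei were counted after 5 days.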

[2] = compound: C[As](C)SC[C@H](NC(=O)CC[C@H](N)C(=O)O)C(=O)NCC(=O)O [Darinaparsin] + COc1cccc2cc(-c3nc([C@H]4CC[C@H](C(=O)O)CC4)n4ncnc(N)c34)[nH]c12 [OSI-027] (partner 0.5 µM)
Procedure, shortened: as §1

[3] = compound: C[As](C)SC[C@H](NC(=O)CC[C@H](N)C(=O)O)C(=O)NCC(=O)O [Darinaparsin] + C[C@@H](Oc1cc(-c2cnn(C3CCNCC3)c2)cnc1N)c1c(Cl)ccc(F)c1Cl [Crizotinib] (partner 1 µM)
Procedure, shortened: as §1

| Cell Line | relative viability ([1]; first compound 0.08 µM) | relative viability ([1]; first compound 0.253 µM) | relative viability ([1]; first compound 0.8 µM) | relative viability ([1]; first compound 2.53 µM) | relative viability ([1]; first compound 8 µM) | relative viability ([2]; first compound 0.08 µM) | relative viability ([2]; first compound 0.8 µM) | relative viability ([2]; first compound 2.53 µM) | relative viability ([2]; first compound 8 µM) | relative viability ([3]; first compound 0.08 µM) | relative viability ([3]; first compound 0.8 µM) | relative viability ([3]; first compound 2.53 µM) | relative viability ([3]; first compound 8 µM) |
| --- | --- | --- | --- | --- | --- | --- | --- | --- | --- | --- | --- | --- | --- |
| NCI-H2170 | 0.819 | 0.85 | 0.664 | 0.796 | 1.07 | 0.734 | 0.725 | 0.697 | 0.727 | 1.61 | 1.35 | 0.953 | 1.51 |
| NCI-H2228 | 0.62 | 0.535 | 0.61 | 1.17 | 0.741 | 0.778 | 0.5 | 0.483 | 0.78 | 0.613 | 0.506 | 0.484 | 0.512 |
| NCI-H2347 | 0.596 | 0.579 | 0.541 | 0.662 | 0.56 | 0.398 |  | 0.424 | 0.407 | 0.709 | 0.703 | 0.747 | 0.696 |
| NCI-H2405 | 1.12 | 0.957 | 0.766 | 1.06 | 0.974 | 0.629 | 0.614 | 0.545 | 0.658 | 0.911 | 0.787 | 0.755 | 0.873 |
| NCI-H3122 | 1 | 1.21 |  | 1.03 | 0.584 | 1.21 | 1 | 0.95 | 1.14 | 0.336 | 0.258 | 0.251 | 0.289 |
| PC-3 [JPC-3] |  | 0.722 | 0.709 | 0.72 | 0.697 | 0.844 | 0.781 | 0.734 | 0.788 | 0.976 | 0.948 | 0.973 | 0.849 |
| PC-14 |  | 0.839 | 0.695 | 0.808 | 0.69 | 1.09 | 0.697 | 0.704 | 1.26 | 1.26 | 0.797 | 0.72 | 1.01 |
| RERF-LC-KJ | 0.643 | 0.628 | 0.523 | 0.664 | 0.566 | 0.592 | 0.574 | 0.527 | 0.596 | 1.01 | 0.925 | 0.791 | 0.96 |
| SK-LU-1 | 0.786 | 0.849 | 0.604 | 0.572 | 0.614 | 0.363 | 0.299 | 0.257 | 0.351 | 1.15 | 1.06 | 0.669 | 0.946 |
| SK-MES-1 | 1.25 | 1.01 | 0.987 | 1.23 | 1.08 | 0.627 | 0.743 | 0.561 | 0.819 | 1.19 | 1.04 | 0.838 | 1.11 |
| SW 1573 | 0.912 | 0.629 | 0.52 | 0.296 | 0.253 | 0.736 | 0.627 | 0.611 | 0.87 | 1.13 | 0.711 | 0.668 | 0.851 |
| UMC-11 | 0.385 | 0.373 | 0.462 | 0.37 | 0.459 | 0.543 | 0.529 | 0.414 | 0.592 | 0.678 | 0.577 | 0.407 | 0.559 |

— the supplement of paper PMC10307832
